Experimental data: patent US10259815B2, “Gabaergic ligands and their uses” (UWM Research Foundation, Inc., priority 2015, dated 2019)
“Also recorded” adds a separate entry of the source.

Legend:
Male NIH Swiss mice = assay: Rotorod assay (ataxia); format: in vivo
Method: Male NIH Swiss mice (n=10) were dosed i.p. with vehicle (1% carboxymethyl cellulose) or one of the test compounds (10 or 30 mg/kg) 30 minutes prior to being tested on the rotorod. Mice were placed on a rod for two minutes at 4 revolutions per minute. […] Mice that fell twice failed the testing.
The rotorod assay (FIG. 5) is used to determine the ataxic effects, generally stemming from the α1 subtype, that compounds have in test subjects. Mice are trained to run on a slow, rotating cylinder for two minutes, and failure to stay on the rod may be due to ataxia. […] Each set of compounds were tested against a vehicle.
Male NIH Swiss mice (n=10/group) were trained on a rotorod (Ugo Basile 7650) at 4 r.p.m. for two minutes per training session prior to testing. On test day, mice were dosed i.p. with either vehicle (1% carboxymethyl cellulose) or one of the test compounds (10 or 30 mg/kg) 30 minutes prior to testing.

Rats = assay: Horizontal wire test; format: in vivo; conditions: three-assay comparison
Method: Horizontal wire test. Rats (n=10) were lifted by the tail and allowed to grasp a horizontally strung wire with their forepaws and released. The inability to complete this task (within 3 seconds) was recorded 20 minutes after each injection of drug.
Drugs. The following drugs were used: HZ166, KRM-II-18B, and KRM-II-81, and were dissolved in a mixture containing 20% Dimethyl sulfoxide (DMSO), 10% Emulphor-620 (Rhodia Inc.), and 70% of 0.9% saline. Flumazenil (purchased from Cayman Chemical Company, MI) was dissolved in a mixture containing 10% ethanol, 40% propylene glycol, and 50% sterile water. Midazolam (Akorn, Inc.) was dissolved in 0.9% saline. Doses were expressed as the weight of the drug in milligrams per kilogram of body weight and drugs were administered intraperitoneally.

[1] = Liver microsomal stability, human; format: in vitro ADME; conditions: for Human Liver microsome stability (reported in % remaining): 37° C., 4 μM compound, 30 minutes
Method: (§1) In vitro metabolism studies were done in mouse, rat, human, and dogs cells (TABLE 2).
(§2) In vitro liver microsomal studies were completed to measure the stability of the compounds against degradation in various species' liver microsomes.
(§3) Compound was incubated in hepatic microsomes over a 30-minute incubation period at 37° C. Incubations both with and without NADPH (2 mM) were performed in a 96-well plate format. The reaction was initiated with the addition of substrate and was terminated by protein precipitation. All incubations were performed using a final substrate concentration of 4 μM in 50 mM sodium phosphate buffer, pH 7.4. The final organic solvent content was 0.5% acetonitrile and 0.02% DMSO. The amount of enzyme present was fixed at 1.11 mg/mL protein irrespective of the species of microsomes used. Samples were analyzed by LC/MS-MS to determine the percent loss in the NAPDH incubations relative to the NADPH free incubations.

[2] = Liver microsomal stability, mouse; format: in vitro ADME; conditions: for Mouse Liver microsome stability (reported in % remaining): 37° C., 4 μM compound, 30 minutes
Method: as §1, §2, §3

[3] = molecular target: T1, α1, β3, γ2 GABA A receptor (Homo sapiens, UniProt P14867+P18507); assay: FLIPR functional assay, α1 GABAA receptor subtype in HEK-293 cells; format: cell-based
T1 construct: host or cells: HEK-293, stably transfected
From the text: The FLIPR functional assay is used to determine the EC50 at the α1 and α3 GABAA receptor subtypes. A high EC50 for the α1 subtype would indicate a low chance of adverse effects, including sedation, ataxia, and muscle relaxation. A low α3 EC50 would indicate potential effectiveness as an anxiolytic, antihyperalgesic, and likely an anticonvulsant. See, for example, Liu et al. (Assay. Drug. Dev. Technol. 2008, 6, 781-6) and Joesch et al. (J. Biomol. Screen. 2008, 13, 218-28).
Compounds tested were synthesized internally and solubilized in DMSO at a 10 mM concentration. GABA was purchase from Sigma (#A2129) and prepared at 100 mM in water.
HEK-293 cells were stably transfected with the α1, β3, γ2 GABA A receptor subunits (GenBank accession numbers NM_000806.3, NM_000814.5, and NM_198904.1, respectively) or α3, β3, γ2 (NM_000808 for α3) where obtained from ChanTest Co. (Catalog # CT6216 and CT6218, respectively).
Cells were cultivated in Dulbeco's Modified Eagle's Medium (DMEM, Sigma D5796) supplemented with 10% Fetal Bovine Serum (FBS, Gibco 16000), 0.5 mg/mL Geneticin (Gibco), 0.04 mg/mL Hygromycin B (Gibco), 0.1 mg/mL Zeocin (Gibco) and 20 mM HEPES (Sigma). Cells were grown at 37° C. in a humidified atmosphere of 5% CO2. In the experiments described here frozen cells were used. For this purpose, cells were gown and maintained under confluency during 2-3 weeks and then frozen down at different cell densities using Recovery™ Cell Culture Freezing Medium (Gibco).
18 hours prior to the experiment, cells were quickly thawed at 37° C. and seeded on Poly-D-Lys 384 plates (Corning 356663) at a density of 25,000 cells/well and in 25 μL of complete cell medium as described above.
Membrane potential changes induced by the flux of ions through the receptor were measured as relative fluorescence units (RFU) using the Fluorometric Imaging Plate Reader (FLIPR Tetra®, Molecular Devices) and the FLIPR Membrane Potential Blue Assay kit (Molecular Devices). Prior to the addition of the compounds the medium was removed and cells were loaded with 20 μL of dye prepared in assay buffer composed of Hank's Balanced Salt Solution (HBSS with Ca^+2 and Mg^+2; Gibco 14025) with 20 mM Hepes. After 1 hour of incubation at room temperature (RT), the plate was placed into the FLIPR instrument and experiments were run adding first 10 μL from the 1st addition plate (compound plate) and after a 3 minutes incubation adding 20 μL of the 2nd addition or agonist plate. The response to this last GABA addition was monitored for another 3 minutes. […]
Data Analysis. The difference between the maximum and the minimum (Max-Min) fluorescence reached during the first addition or read interval and the second read interval were used for data analysis (agonist and potentiation, respectively). […]

[4] = Liver microsomal stability, dog; format: in vitro ADME; conditions: for Dog Liver microsome stability (reported in % remaining): 37° C., 4 μM compound, 30 minutes
Method: as §1, §2, §3

T1 sequence (P14867 28-456): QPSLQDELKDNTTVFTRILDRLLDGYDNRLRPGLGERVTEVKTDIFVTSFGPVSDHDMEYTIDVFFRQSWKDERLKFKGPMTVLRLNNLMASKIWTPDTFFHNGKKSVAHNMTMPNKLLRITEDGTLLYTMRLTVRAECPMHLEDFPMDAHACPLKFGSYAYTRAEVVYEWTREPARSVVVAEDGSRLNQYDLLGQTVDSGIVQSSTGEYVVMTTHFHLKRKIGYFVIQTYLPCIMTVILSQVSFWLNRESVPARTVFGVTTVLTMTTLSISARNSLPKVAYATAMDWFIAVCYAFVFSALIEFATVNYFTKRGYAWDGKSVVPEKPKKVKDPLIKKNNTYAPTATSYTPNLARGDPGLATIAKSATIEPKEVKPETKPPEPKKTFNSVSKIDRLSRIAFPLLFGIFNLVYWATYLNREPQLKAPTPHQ
T1 sequence (P28472 26-473 partner): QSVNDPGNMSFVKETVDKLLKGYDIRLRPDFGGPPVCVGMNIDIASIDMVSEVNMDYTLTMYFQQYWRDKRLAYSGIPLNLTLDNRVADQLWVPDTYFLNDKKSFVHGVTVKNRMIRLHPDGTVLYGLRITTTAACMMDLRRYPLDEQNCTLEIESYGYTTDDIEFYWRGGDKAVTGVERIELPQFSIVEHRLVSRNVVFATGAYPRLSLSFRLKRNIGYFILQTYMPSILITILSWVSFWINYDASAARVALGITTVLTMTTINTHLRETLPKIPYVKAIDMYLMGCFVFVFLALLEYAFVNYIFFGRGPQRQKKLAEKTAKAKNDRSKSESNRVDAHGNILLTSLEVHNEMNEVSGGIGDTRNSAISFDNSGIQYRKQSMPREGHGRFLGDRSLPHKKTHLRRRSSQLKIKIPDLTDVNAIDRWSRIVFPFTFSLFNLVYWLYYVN
T1 sequence (P18507 40-475): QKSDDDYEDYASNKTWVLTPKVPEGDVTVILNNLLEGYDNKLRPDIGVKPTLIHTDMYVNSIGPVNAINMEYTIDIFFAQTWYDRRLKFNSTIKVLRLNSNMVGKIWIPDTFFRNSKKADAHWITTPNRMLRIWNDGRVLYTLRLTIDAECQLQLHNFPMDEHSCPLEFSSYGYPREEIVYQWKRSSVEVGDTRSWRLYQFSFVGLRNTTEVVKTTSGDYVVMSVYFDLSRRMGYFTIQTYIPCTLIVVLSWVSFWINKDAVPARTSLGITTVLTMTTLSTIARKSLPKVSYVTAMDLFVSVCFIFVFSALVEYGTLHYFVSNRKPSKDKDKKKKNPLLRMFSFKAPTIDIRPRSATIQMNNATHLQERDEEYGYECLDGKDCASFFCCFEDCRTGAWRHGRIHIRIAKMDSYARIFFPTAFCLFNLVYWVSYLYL

SMILES | rotorod performance at 30 mg/kg (Male NIH Swiss mice; 30 mg/kg i.p., 30 minutes prior, 4 r.p.m., two minutes) | muscle-relaxant activity, doses relative to antihyperalgesic doses (Rats) | Human Liver microsome stability (reported in % remaining) [1] [% remaining] | Mouse Liver microsome stability (reported in % remaining) [2] [% remaining] | EC50 [3] [µM] | Dog Liver microsome stability (reported in % remaining) [4] [% remaining] | ataxic / sedative effects in rotarod assay (Male NIH Swiss mice; 10 or 30 mg/kg i.p.) | Human % Metabolized ([1]; in vitro metabolism, human) [%] | Mouse % Metabolized ([2]; in vitro metabolism, mouse) [%] | Dog % Metabolized ([4]; in vitro metabolism, dog) [%]
C#Cc1ccc2c(c1)C(c1ccccc1F)=NCc1c(-c3cnco3)ncn1-2 [KRM-II-18B, 5-(8-Ethynyl-6-(2-fluorophenyl)-4H-benzo[f]imidazo[1,5-a][1,4]diazepin-3-yl)oxazole] | failed multiple times | much larger doses | 78 | 79 | > 20 | 87 |  |  |  | 
C#Cc1ccc2c(c1)C(c1ccccn1)=NCc1c(-c3cnco3)ncn1-2 [KRM-II-81, 5-(8-Ethynyl-6-(pyridin-2-yl)-4H-benzo[f]imidazo[1,5-a][1,4]diazepin-3-yl)oxazole] |  | much larger doses | 91 | 90 | > 20 | 94 | less sedative effects than HZ-166; also recorded: no significant ataxic concerns | 8.6 | 10.1 | 5.9
